In assay [1] the test system is Gerbillinae. The assay can be described thus: Inhibition of GR-73632-induced foot tapping in gerbils at 6 mg/kg, iv after 24 hrs. It is filed as functional.
Assay [2] deals with T1, Substance-P receptor (Homo sapiens, UniProt P25103). The assay can be described thus: Displacement of [125I]-SP from human NK1 receptor expressed in CHO cells.
In assay [3] the test system is Gerbillinae. The assay can be described thus: Inhibition of GR-73632-induced foot tapping in gerbils at 3 mg/kg, iv after 24 hrs. To be noted: for inhibition in vivo at 3 mg/kg: Gerbillinae, iv, 24 h; for Inhibition: 3 mg/kg. It is filed as functional.
The subject of assay [4] is Gerbillinae. The assay can be described thus: Inhibition of GR-73632-induced foot tapping in gerbils at 3 mg/kg, iv. The assay is classed as functional.
Assay [5] relates to Gerbillinae. The assay can be described thus: Inhibition of GR-73632-induced foot tapping in iv dosed gerbils after 24 hrs. As to conditions: for ED50: Gerbillinae, iv, 24 h, read-out: ID50 (the source's name). It is filed as functional.
The test system of assay [6] is Gerbillinae. The assay is described as follows: Inhibition of GR-73632-induced foot tapping in iv dosed gerbils. The assay is classed as functional. To be noted: for ED50: Gerbillinae, iv, read-out: ID50 (the source's name).
Assay [7] concerns Gerbillinae. The assay can be described thus: Inhibition of GR-73632-induced foot tapping in gerbils at 1 mg/kg, iv. The assay is classed as functional.
The target in assay [8] is T1, Substance-P receptor. The assay is described as follows: Displacement of [125I]-SP from human NK1 receptor expressed in CHO cells at 100 nM.
Assay [9] relates to Gerbillinae. The assay can be described thus: Inhibition of GR-73632-induced foot tapping in gerbils at 2 mg/kg, iv. The assay is classed as functional.

The source of these data is ChEMBL document CHEMBL1139768, “The discovery of potent, selective, and orally bioavailable hNK1 antagonists derived from pyrrolidine” (Bioorg Med Chem Lett, 2007).

T1 sequence (P25103 whole entry): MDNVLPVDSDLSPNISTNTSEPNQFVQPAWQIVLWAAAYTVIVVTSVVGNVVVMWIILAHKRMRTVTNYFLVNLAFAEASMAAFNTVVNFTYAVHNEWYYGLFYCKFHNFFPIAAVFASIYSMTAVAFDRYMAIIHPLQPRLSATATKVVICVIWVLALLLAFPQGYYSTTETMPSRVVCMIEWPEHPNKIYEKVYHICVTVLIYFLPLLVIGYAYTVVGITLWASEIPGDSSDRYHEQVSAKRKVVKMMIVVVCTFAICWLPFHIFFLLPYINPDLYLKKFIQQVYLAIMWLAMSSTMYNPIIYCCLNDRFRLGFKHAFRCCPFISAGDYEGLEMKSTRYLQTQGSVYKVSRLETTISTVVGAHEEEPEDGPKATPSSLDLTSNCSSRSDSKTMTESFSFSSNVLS

`CC(=O)N1C[C@@H](O[C@H](C)c2cc(C(F)(F)F)cc(C(F)(F)F)c2)[C@H](c2ccc(F)cc2)C1` displayed an inhibition in vivo at 6 mg/kg in the assay on Gerbillinae [1] of 26%. The same compound yielded an IC50 on Substance-P receptor [2] of 0.07 nM.

In turn, `CC1=C(N2C[C@@H](O[C@H](C)c3cc(C(F)(F)F)cc(C(F)(F)F)c3)[C@H](c3ccc(F)cc3)C2)CCC1=O` yielded an inhibition in vivo at 3 mg/kg in the assay with Gerbillinae [3] of 67%. This compound also showed an IC50 at Substance-P receptor [2] of 0.13 nM.

For `CC1CC(=O)C=C1N1C[C@@H](O[C@H](C)c2cc(C(F)(F)F)cc(C(F)(F)F)c2)[C@H](c2ccc(F)cc2)C1` (mixture of isomers), 3 mg/kg produced 79% inhibition in vivo in the assay on Gerbillinae [3]. The IC50 at Substance-P receptor [2] was 0.11 nM.

On to `C[C@@H](O[C@@H]1CN(C(=O)NCc2cnn[nH]2)C[C@H]1c1ccc(F)cc1)c1cc(C(F)(F)F)cc(C(F)(F)F)c1`, for which the inhibition in vivo at 3 mg/kg in the assay on Gerbillinae [3] is 24%. Also, the IC50 on Substance-P receptor [2] was found to be 0.58 nM.

In the assay on Gerbillinae [1], `C[C@@H](O[C@@H]1CN(C(=O)C(C)(C)C)C[C@H]1c1ccccc1)c1cc(C(F)(F)F)cc(C(F)(F)F)c1` had an inhibition in vivo at 6 mg/kg of 45%. The IC50 on Substance-P receptor [2] came to 0.18 nM.

Regarding `CC(=O)N1CCN(C(=O)N2C[C@@H](O[C@H](C)c3cc(C(F)(F)F)cc(C(F)(F)F)c3)[C@H](c3ccc(F)cc3)C2)CC1`, the inhibition in vivo at 3 mg/kg in the assay on Gerbillinae [3] came to 57%. For the same compound, the IC50 on Substance-P receptor [2] was found to be 0.3 nM.

With `C[C@@H](O[C@@H]1CN(C2=CC(=O)CC2)C[C@H]1c1ccccc1)c1cc(C(F)(F)F)cc(C(F)(F)F)c1`, the inhibition in vivo at 3 mg/kg in the assay with Gerbillinae [4] and in the assay with Gerbillinae [3] was 100% each time. Besides, the ED50 worked out at 1.1 mg/kg in the assay with Gerbillinae [5] and 0.9 mg/kg in the assay with Gerbillinae [6]. Besides, the IC50 on Substance-P receptor [2] amounted to 0.07 nM.

In the assay with Gerbillinae [1], `CCC(=O)N1C[C@@H](O[C@H](C)c2cc(C(F)(F)F)cc(C(F)(F)F)c2)[C@H](c2ccc(F)cc2)C1` came in with an inhibition in vivo at 6 mg/kg of 0%. The compound also displayed an IC50 at Substance-P receptor [2] of 0.09 nM.

For `C[C@@H](O[C@@H]1CN(C2=CC(=O)N(C)C2)C[C@H]1c1ccc(F)cc1)c1cc(C(F)(F)F)cc(C(F)(F)F)c1`, in the assay with Gerbillinae [3], the inhibition in vivo at 3 mg/kg came to 8%. The IC50 at Substance-P receptor [2] came to 0.12 nM.

Turning to `C[C@@H](O[C@@H]1CN(C(=O)N2CCn3c(nnc3C(F)(F)F)C2)C[C@H]1c1ccc(F)cc1)c1cc(C(F)(F)F)cc(C(F)(F)F)c1`, the inhibition in vivo at 3 mg/kg with Gerbillinae [3] stood at 66%. Moreover, the IC50 on Substance-P receptor [2] was 0.47 nM.

As for `C[C@@H](O[C@@H]1CN(C2=CC(=O)OC2)C[C@H]1c1ccc(F)cc1)c1cc(C(F)(F)F)cc(C(F)(F)F)c1`, the inhibition in vivo at 3 mg/kg with Gerbillinae [3] amounted to 67%. The IC50 on Substance-P receptor [2] is 0.16 nM.

With `C[C@@H](O[C@@H]1CN(C=O)C[C@H]1c1ccc(F)cc1)c1cc(C(F)(F)F)cc(C(F)(F)F)c1`, the IC50 on Substance-P receptor [2] is 0.24 nM.

Take `CC1CC(N2C[C@@H](O[C@H](C)c3cc(C(F)(F)F)cc(C(F)(F)F)c3)[C@H](c3ccc(F)cc3)C2)=CC1=O` (stereo in doubt): the Inhibition in the assay on Gerbillinae [3] came out at 2%. The IC50 on Substance-P receptor [2] amounted to 0.09 nM.

For `C[C@@H](O[C@@H]1CN(C(=O)[C@@H]2COC(=O)N2)C[C@H]1c1ccc(F)cc1)c1cc(C(F)(F)F)cc(C(F)(F)F)c1`, testing at 3 mg/kg with Gerbillinae [3] gave an inhibition in vivo of 13%. In addition, the IC50 on Substance-P receptor [2] came out at 0.34 nM.

In the assay with Gerbillinae [7], `C[C@@H](O[C@@H]1CN(C(=O)N2CCOCC2)C[C@H]1c1ccccc1)c1cc(C(F)(F)F)cc(C(F)(F)F)c1` returned an inhibition in vivo at 1 mg/kg of 40%. The same compound displayed an IC50 at Substance-P receptor [2] of 0.16 nM.

As to `C[C@@H](O[C@@H]1CN(C2=CC(=O)C(O)C2)C[C@H]1c1ccc(F)cc1)c1cc(C(F)(F)F)cc(C(F)(F)F)c1` (stereo in doubt), the results for the ID50 in the assay on Gerbillinae [5] and in the assay on Gerbillinae [6] were 0.5 mg/kg and 1.1 mg/kg, respectively. In addition, the inhibition in vivo at 3 mg/kg in the assay with Gerbillinae [3] was determined as 95%. The compound also gave an IC50 at Substance-P receptor [2] of 0.3 nM.

Consider `C[C@@H](O[C@@H]1CN(C(=O)[C@@H]2CCC(=O)N2C)C[C@H]1c1ccc(F)cc1)c1cc(C(F)(F)F)cc(C(F)(F)F)c1`, for which the ED50 in the assay on Gerbillinae [5] amounted to 1.2 mg/kg; in the assay with Gerbillinae [6], 0.6 mg/kg. Also, at 3 mg/kg the inhibition in vivo in the assay with Gerbillinae [3] was 100%. Moreover, the IC50 on Substance-P receptor [2] was found to be 0.12 nM.

Consider `CC(=O)N1C[C@@H](O[C@@H](C)c2cc(C(F)(F)F)cc(C(F)(F)F)c2)[C@H](c2ccccc2)C1`, for which, at Substance-P receptor [8], the inhibition was determined as 18%.

`C[C@@H](O[C@@H]1CN(C2=CC(=O)C(O)C2)C[C@H]1c1ccc(F)cc1)c1cc(C(F)(F)F)cc(C(F)(F)F)c1` (single isomer, unassigned; diastereomer A) returned an inhibition in vivo at 3 mg/kg in the assay with Gerbillinae [4] of 100%. Also, in the assay on Gerbillinae [5], the ED50 is 0.7 mg/kg. For the same compound, the ID50 in the assay with Gerbillinae [6] was found to be 0.5 mg/kg. In addition, the Inhibition with Gerbillinae [3] is listed as 100%. Further, the IC50 at Substance-P receptor [2] came to 0.22 nM.

In the assay with Gerbillinae [3], `CC1CC(N2C[C@@H](O[C@H](C)c3cc(C(F)(F)F)cc(C(F)(F)F)c3)[C@H](c3ccc(F)cc3)C2)=CC1=O` (single isomer, unassigned; diastereomer A) came in with an Inhibition of 85%. Further, the IC50 at Substance-P receptor [2] worked out at 0.16 nM.

In turn, `C[C@@H](O[C@@H]1CN(C(=O)N(C)C)C[C@H]1c1ccc(F)cc1)c1cc(C(F)(F)F)cc(C(F)(F)F)c1` showed an IC50 on Substance-P receptor [2] of 0.38 nM.

In the case of `C[C@@H](O[C@@H]1CN(C2=CC(=O)CC(C)(C)C2)C[C@H]1c1ccccc1)c1cc(C(F)(F)F)cc(C(F)(F)F)c1`, testing at 3 mg/kg with Gerbillinae [3] gave an inhibition in vivo of 5%. The IC50 at Substance-P receptor [2] was 0.13 nM.

On to `CC(=O)N1C[C@@H](O[C@H](C)c2cc(C(F)(F)F)cc(C(F)(F)F)c2)[C@H](c2ccccc2)C1`, for which the ED50 is 3.2 mg/kg with Gerbillinae [5] and 0.6 mg/kg in the assay with Gerbillinae [6]. In the assay with Gerbillinae [1], this compound displayed an inhibition in vivo at 6 mg/kg of 98%. In addition, the IC50 at Substance-P receptor [2] stood at 0.09 nM.

For `CC(C)NC(=O)N1C[C@@H](O[C@H](C)c2cc(C(F)(F)F)cc(C(F)(F)F)c2)[C@H](c2ccc(F)cc2)C1`, 1 mg/kg produced 64% inhibition in vivo with Gerbillinae [7]. Besides, the ED50 in the assay with Gerbillinae [5] amounted to 0.8 mg/kg. In the assay on Gerbillinae [1], this compound gave an inhibition in vivo at 6 mg/kg of 86%. In addition, the IC50 at Substance-P receptor [2] amounted to 0.06 nM.

Turning to `CC(=O)N1CCC(C(=O)N2C[C@@H](O[C@H](C)c3cc(C(F)(F)F)cc(C(F)(F)F)c3)[C@H](c3ccc(F)cc3)C2)CC1`, in the assay on Gerbillinae [3], the inhibition in vivo at 3 mg/kg was found to be 50%. This compound also displayed an IC50 on Substance-P receptor [2] of 0.07 nM.

`CC(C)C(=O)N1C[C@@H](O[C@H](C)c2cc(C(F)(F)F)cc(C(F)(F)F)c2)[C@H](c2ccc(F)cc2)C1` showed an inhibition in vivo at 6 mg/kg in the assay with Gerbillinae [1] of 43%. The IC50 on Substance-P receptor [2] turned out to be 0.15 nM.

With `Cc1cnc(C(=O)N2C[C@@H](O[C@H](C)c3cc(C(F)(F)F)cc(C(F)(F)F)c3)[C@H](c3ccc(F)cc3)C2)cn1`, the inhibition in vivo at 3 mg/kg in the assay with Gerbillinae [3] turned out to be 45%. The same compound displayed an IC50 on Substance-P receptor [2] of 0.12 nM.

In turn, `C[C@@H](O[C@@H]1CN(C(=O)NC(C)(C)C)C[C@H]1c1ccc(F)cc1)c1cc(C(F)(F)F)cc(C(F)(F)F)c1` displayed an inhibition in vivo at 1 mg/kg with Gerbillinae [7] of 28%. Also, the inhibition in vivo at 6 mg/kg with Gerbillinae [1] is 6%. For the same compound, the IC50 at Substance-P receptor [2] was found to be 0.14 nM.

Take `CCNC(=O)N1C[C@@H](O[C@H](C)c2cc(C(F)(F)F)cc(C(F)(F)F)c2)[C@H](c2ccc(F)cc2)C1`: the inhibition in vivo at 1 mg/kg with Gerbillinae [7] came out at 61%. Also, the ED50 in the assay on Gerbillinae [5] amounted to 1 mg/kg. Further, the inhibition in vivo at 6 mg/kg in the assay with Gerbillinae [1] turned out to be 93%. At Substance-P receptor [2], this compound registered an IC50 of 0.1 nM.

Regarding `CNC(=O)N1C[C@@H](O[C@H](C)c2cc(C(F)(F)F)cc(C(F)(F)F)c2)[C@H](c2ccc(F)cc2)C1`, the ED50 in the assay with Gerbillinae [5] is 3 mg/kg; in the assay on Gerbillinae [6], 1 mg/kg. This compound also displayed an inhibition in vivo at 2 mg/kg in the assay with Gerbillinae [9] of 100%. Besides, testing at 6 mg/kg with Gerbillinae [1] gave an inhibition in vivo of 77%. At Substance-P receptor [2], the IC50 came to 0.11 nM.

Turning to `C[C@@H](O[C@@H]1CN(C2=CC(=O)C(C)(C)CC2)C[C@H]1c1ccccc1)c1cc(C(F)(F)F)cc(C(F)(F)F)c1`, in the assay on Gerbillinae [3], the inhibition in vivo at 3 mg/kg amounted to 12%. This compound also showed a concentration for half-maximal inhibition (IC50) on Substance-P receptor [2] of 0.18 nM.
